From US20250154171A1, “RAS INHIBITORS” (Revolution Medicines, Inc., priority 2023, published 2025)
Like-named read-outs stand apart in the source and are kept apart here.

Assays:
[1] = ester bond, 18-membered ring, PyBOP/HOBt/DIEA
K-RasG12V (Capan-1) = assay: Potency assay: cellular pERK (AlphaLISA SureFire or In-Cell Western), Capan-1; type: cell-based; conditions: Homo sapiens; Capan-1 cells; 4 hours; in at least one of the assays (AlphaLISA or In-Cell Western); read-out: pERK IC50 with respect to K-RasG12V (Capan-1)
Description: The purpose of this assay is to measure the ability of test compounds to inhibit K-Ras in cells. Activated K-Ras induces increased phosphorylation of ERK at Threonine 202 and Tyrosine 204 (PERK). This procedure measures a decrease in cellular pERK in response to test compounds. The procedure described below in Capan-1 cells is applicable to K-RasG12V.
Note: This protocol may be executed substituting other cell lines to characterize inhibitors of other RAS variants, including, for example, NCI-H358 (K-Ras G12C), AsPC-1 (K-Ras G12D), Capan-1 (K-Ras G12V), or NCI-H1355 (K-Ras G13C).
Cells are grown and maintained using media and procedures recommended by the ATCC. On the day prior to compound addition, cells are plated in 384-well cell culture plates (40 μl/well) and grown overnight in a 37° C., 5% CO2 incubator. Test compounds are prepared in 10, 3-fold dilutions in DMSO, with a high concentration of 10 mM. On the day of assay, 40 nL of test compound is added to each well of cell culture plate using an Echo550 liquid handler (LabCyte®). Concentrations of test compound are tested in duplicate. After compound addition, cells are incubated 4 hours at 37° C., 5% CO2. Following incubation, culture medium is removed, and cells are washed once with phosphate buffered saline.
In some experiments, cellular pERK level is determined using the AlphaLISA SureFire Ultra p-ERK1/2 Assay Kit (PerkinElmer). Cells are lysed in 25 μL lysis buffer, with shaking at 600 RPM at room temperature. Lysate (10 μL) is transferred to a 384-well Opti-plate (PerkinElmer) and 5 μL acceptor mix is added. After a 2-hour incubation in the dark, 5 μL donor mix is added, plate is sealed, and incubated 2 hours at room temperature. Signal is read on an Envision plate reader (PerkinElmer) using standard AlphaLISA settings. Analysis of raw data is carried out in Excel (Microsoft) and Prism (GraphPad). Signal is plotted vs. the decadal logarithm of compound concentration, and IC50 is determined by fitting a 4-parameter sigmoidal concentration response model.
In other experiments, cellular pERK is determined by In-Cell Western. Following compound treatment, cells are washed twice with 200 μL tris buffered saline (TBS) and fixed for 15 minutes with 150 μL 4% paraformaldehyde in TBS. Fixed cells are washed 4 times for 5 minutes with TBS containing 0.1% Triton X-100 (TBST) and then blocked with 100 μL Odyssey blocking buffer (LI-COR) for 60 minutes at room temperature. Primary antibody (PERK, CST-4370, Cell Signaling Technology) is diluted 1:200 in blocking buffer, and 50 μL is added to each well and incubated overnight at 4° C. Cells are washed 4 times for 5 minutes with TBST. Secondary antibody (IR-800CW rabbit, LI-COR, diluted 1:800) and DNA stain DRAQ5 (LI-COR, diluted 1:2000) are added and incubated 1-2 hours at room temperature. Cells are washed 4 times for 5 minutes with TBST. Plates are scanned on a Li—COR Odyssey CLx Imager. Analysis of raw data is carried out in Excel (Microsoft) and Prism (GraphPad). Signal is plotted vs. the decadal logarithm of compound concentration, and IC50 is determined by fitting a 4-parameter sigmoidal concentration response model.

Structure (SMILES): CO[C@@H](C)c1ncc(C2CN(C3CC3)C2)cc1-c1c2c3cc(ccc3n1CCOC1CCOCC1)-c1csc(n1)[C@@H](N1CC3(COC3)C1)[C@H](NC(=O)[C@@H]1OC[C@@H]1C)C(=O)N1CCC[C@H](N1)C(=O)OCC(C)(C)C2
- ring closure, yield after HPLC ([1]; from CO[C@@H](C)c1ncc(C2CN(C3CC3)C2)cc1-c1c(CC(C)(C)CO)c2cc(-c3csc([C@H]([C@H](NC(=O)[C@@H]4OC[C@@H]4C)C(=O)N4CCC[C@@H](C(=O)O)N4)N4CC5(COC5)C4)n3)ccc2n1CCOC1CCOCC1, MeCN, 1.44 mM, 35.0 °C, 3.0 h): 20%

Structure (SMILES): CO[C@@H](C)c1ncccc1-c1c2c3cc(ccc3n1C1CC(C#N)C1)-c1coc(n1)[C@@H](N1CC3(COC3)C1)[C@H](NC(=O)OC(C)(C)C)C(=O)N1CCC[C@H](N1)C(=O)OCC(C)(C)C2 (stereo partly shown)
- ring closure, yield after HPLC ([1]; from CO[C@@H](C)c1ncccc1-c1c(CC(C)(C)CO)c2cc(-c3coc([C@H]([C@H](NC(=O)OC(C)(C)C)C(=O)N4CCC[C@@H](C(=O)O)N4)N4CC5(COC5)C4)n3)ccc2n1C1CC(C#N)C1, DMF, 12.5 mM, 25.0 °C, 2.0 h): 27.4%

Structure (SMILES): COC1CN([C@@H]2c3nc(cs3)-c3ccc4c(c3)c(c(-c3cccnc3[C@H](C)OC)n4C3CN(C4CC4)C3)CC(C)(C)COC(=O)[C@@H]3CCCN(N3)C(=O)[C@H]2NC(=O)OC(C)(C)C)C1
- ring closure, yield after HPLC ([1]; from COC1CN([C@H](c2nc(-c3ccc4c(c3)c(CC(C)(C)CO)c(-c3cccnc3[C@H](C)OC)n4C3CN(C4CC4)C3)cs2)[C@H](NC(=O)OC(C)(C)C)C(=O)N2CCC[C@@H](C(=O)O)N2)C1, DMF, 11.2 mM, 25.0 °C, 5.0 h): 40.2%

Structure (SMILES): CO[C@@H](C)c1ncc(N2CCN(C3CC3)CC2)cc1-c1c2c3cc(ccc3n1CCOC1CCOCC1)-c1csc(n1)[C@@H](N1CC3(COC3)C1)[C@H](NC(=O)[C@@H]1[C@@H](C)[C@H]1C(=O)N1CCN(C)CC1)C(=O)N1CCC[C@H](N1)C(=O)OCC(C)(C)C2 (atropisomer, axis not shown) [Example A1083]
- IC50 (K-RasG12V (Capan-1)): < 650 nM
